Laboratory results taken from the NIST ThermoML archive (doi:10.1021/je060271a).

Conditions: 343.15 K, Liquid, Vibrating tube method

CCCC(=O)OCC(COC(=O)CCC)(COC(=O)CCC)COC(=O)CCC [pentaerythritol tetrabutyrate]
Conditions | mass density [kg/m3]
14185 kPa | 1019
14223 kPa | 1019.1
14263 kPa | 1019
14296 kPa | 1019.1
14334 kPa | 1019.1
14374 kPa | 1019.1
14412 kPa | 1019.1
14452 kPa | 1019.2
14485 kPa | 1019.2
14525 kPa | 1019.1
14564 kPa | 1019.1
14606 kPa | 1019.2
14639 kPa | 1019.3
14680 kPa | 1019.3
14721 kPa | 1019.3
14764 kPa | 1019.4
14805 kPa | 1019.4
14840 kPa | 1019.4
15093 kPa | 1019.6
15139 kPa | 1019.6
15180 kPa | 1019.6
15211 kPa | 1019.8
15248 kPa | 1019.7
15286 kPa | 1019.7
15317 kPa | 1019.7
15355 kPa | 1019.8
15392 kPa | 1019.8
15430 kPa | 1019.8
15469 kPa | 1019.9
15538 kPa | 1019.9
15616 kPa | 1020
15655 kPa | 1019.9
15688 kPa | 1020.1
15727 kPa | 1020.1
15769 kPa | 1020
15802 kPa | 1020.2
15842 kPa | 1020.2
15881 kPa | 1020.2
15922 kPa | 1020.2
15956 kPa | 1020.2
15997 kPa | 1020.2
16038 kPa | 1020.3
16079 kPa | 1020.2
16120 kPa | 1020.4
16154 kPa | 1020.3
16195 kPa | 1020.4
16239 kPa | 1020.3
16276 kPa | 1020.5
16318 kPa | 1020.4
16360 kPa | 1020.5
16403 kPa | 1020.5
16446 kPa | 1020.6
16489 kPa | 1020.5
16526 kPa | 1020.6
16570 kPa | 1020.6
16614 kPa | 1020.7
16659 kPa | 1020.6
16696 kPa | 1020.7
16741 kPa | 1020.8
16787 kPa | 1020.9
16833 kPa | 1020.9
16879 kPa | 1020.9
16918 kPa | 1021
16964 kPa | 1021
17012 kPa | 1020.9
17052 kPa | 1021
17100 kPa | 1021.1
17143 kPa | 1021.2
17186 kPa | 1021
17229 kPa | 1021.2
17265 kPa | 1021.1
17310 kPa | 1021.1
17355 kPa | 1021.3
17393 kPa | 1021.2
17439 kPa | 1021.3
17485 kPa | 1021.2
17525 kPa | 1021.4
17560 kPa | 1021.3
17590 kPa | 1021.4
17624 kPa | 1021.4
17660 kPa | 1021.5
17694 kPa | 1021.4
17730 kPa | 1021.5
17760 kPa | 1021.5
17796 kPa | 1021.6
17870 kPa | 1021.5
17900 kPa | 1021.5
17935 kPa | 1021.6
17972 kPa | 1021.8
18009 kPa | 1021.6
18039 kPa | 1021.7
18076 kPa | 1021.8
18113 kPa | 1021.7
18150 kPa | 1021.8
18187 kPa | 1021.7
18218 kPa | 1021.8
18256 kPa | 1021.9
18294 kPa | 1021.8
18332 kPa | 1022
18370 kPa | 1021.9
18402 kPa | 1021.9
18441 kPa | 1022
18479 kPa | 1022
18518 kPa | 1022.1
18552 kPa | 1022.2
18590 kPa | 1022.1
18630 kPa | 1022.1
18669 kPa | 1022.1
18703 kPa | 1022.1
18742 kPa | 1022.2
18784 kPa | 1022.2
18824 kPa | 1022.3
18864 kPa | 1022.3
18898 kPa | 1022.2
18938 kPa | 1022.4
18978 kPa | 1022.3
19020 kPa | 1022.4
19054 kPa | 1022.4
19096 kPa | 1022.5
19138 kPa | 1022.5
19216 kPa | 1022.5
19297 kPa | 1022.6
19340 kPa | 1022.6
19382 kPa | 1022.6
19425 kPa | 1022.6
19468 kPa | 1022.7
19504 kPa | 1022.8
19548 kPa | 1022.7
19591 kPa | 1022.9
19634 kPa | 1022.7
19679 kPa | 1022.9
19717 kPa | 1022.8
19761 kPa | 1022.8
19809 kPa | 1022.9
19854 kPa | 1022.9
19892 kPa | 1023
19938 kPa | 1023
19984 kPa | 1023.1
20022 kPa | 1023.2
20068 kPa | 1023.1
20115 kPa | 1023.2
20161 kPa | 1023.1
20200 kPa | 1023.2
20247 kPa | 1023.1
20294 kPa | 1023.1
20341 kPa | 1023.3
